Test [1] addresses intracellular phosphorylation of EGFR (Tyr1068) in PC-9 cells (Homo sapiens, UniProt P00533, DEL746-750). Kind of test: PC-9 pEGFR AlphaLISA assay. It counts as cell-based. Particulars: 4 hours incubation, read-out: Phos EGFR PC9 IC50. Put shortly: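 PC-9 cells (EGFR del746-750) in phenol-free DMEM/10% FBS, adhered overnight, then exposed to 10-point 4-fold compound dilutions for 4 h at 37 °C. Lysates assayed for pEGFR Tyr1068 by AlphaLISA SureFire Ultra; IC50 from percent pEGFR inhibition vs log concentration.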
(In Alpha technology, singlet oxygen from a donor bead excites a nearby acceptor bead.)

The target of a further test is T1, EGFR L858R (Homo sapiens, UniProt P00533, L858R).
T1 construct: purchased SignalChem E10-122BG
Kind of test: Biochemical EGFR inhibition assay (Caliper mobility shift), EGFR L858R. As to conditions: biochemical Caliper mobility shift assay, EGFR L858R enzyme; read-out: Enz EGFR L858R IC50. In outline: (§1)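 Apparent IC50 values come from Caliper electrophoretic separation of phosphorylated and unphosphorylated 5-FAM peptide (2.5 μM). ATP was either 1.0 mM or at Km; HEPES pH 7.5 buffer with MgCl2, DTT, 1% DMSO. Reactions ran at 25 °C until 10–20% phosphorylated, then EDTA quench.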

A further test addresses T2, EGFR (d746-750) (Homo sapiens, UniProt P00533, DEL746-750).
T2 construct: purchased SignalChem E10-122JG
Kind of test: Biochemical EGFR inhibition assay (Caliper mobility shift), EGFR (d746-750). Particulars: biochemical Caliper mobility shift assay, EGFR Exon 19-del enzyme; read-out: Enz EGFR Exon 19-del IC50. In outline:
as §1

The record followed here is patent US20260207602A1, “EGFR INHIBITORS” (Blueprint Medicines Corporation, priority 2022, published 2026).

T1 sequence (P00533 25-1210 L858R): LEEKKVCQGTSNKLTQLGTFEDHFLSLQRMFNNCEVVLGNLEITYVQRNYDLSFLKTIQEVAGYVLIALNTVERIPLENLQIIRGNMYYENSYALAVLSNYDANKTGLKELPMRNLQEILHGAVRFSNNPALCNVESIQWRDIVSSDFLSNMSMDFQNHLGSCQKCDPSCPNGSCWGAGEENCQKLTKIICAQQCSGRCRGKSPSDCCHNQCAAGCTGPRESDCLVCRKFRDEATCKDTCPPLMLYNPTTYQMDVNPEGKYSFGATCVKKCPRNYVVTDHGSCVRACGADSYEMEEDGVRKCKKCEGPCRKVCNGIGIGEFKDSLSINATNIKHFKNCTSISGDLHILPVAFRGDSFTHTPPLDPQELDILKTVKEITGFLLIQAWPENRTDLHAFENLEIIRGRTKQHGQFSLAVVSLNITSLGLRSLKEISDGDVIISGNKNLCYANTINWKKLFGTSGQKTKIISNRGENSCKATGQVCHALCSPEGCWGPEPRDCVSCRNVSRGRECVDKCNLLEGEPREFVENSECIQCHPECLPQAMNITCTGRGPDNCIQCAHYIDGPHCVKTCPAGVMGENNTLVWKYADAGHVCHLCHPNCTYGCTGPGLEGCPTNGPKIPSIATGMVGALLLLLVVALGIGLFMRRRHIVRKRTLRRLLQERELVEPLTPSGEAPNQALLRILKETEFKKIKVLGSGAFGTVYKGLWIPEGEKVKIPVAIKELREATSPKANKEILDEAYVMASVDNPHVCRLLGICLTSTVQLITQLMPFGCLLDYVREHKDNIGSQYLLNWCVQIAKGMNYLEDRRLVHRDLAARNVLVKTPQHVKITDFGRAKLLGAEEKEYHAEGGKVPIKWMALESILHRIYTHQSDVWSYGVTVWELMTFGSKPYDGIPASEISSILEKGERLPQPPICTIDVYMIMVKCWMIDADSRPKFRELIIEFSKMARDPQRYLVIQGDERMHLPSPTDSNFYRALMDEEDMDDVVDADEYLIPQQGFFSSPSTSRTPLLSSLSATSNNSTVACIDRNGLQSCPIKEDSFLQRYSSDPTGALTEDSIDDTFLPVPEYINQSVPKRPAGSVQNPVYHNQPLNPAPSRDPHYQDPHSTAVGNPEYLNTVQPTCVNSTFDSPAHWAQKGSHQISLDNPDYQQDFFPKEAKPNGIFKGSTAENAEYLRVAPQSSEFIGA
intracellular phosphorylation of EGFR (Tyr1068) in PC-9 cells, sequence (P00533 with tags, fused parts or gaps DEL746-750): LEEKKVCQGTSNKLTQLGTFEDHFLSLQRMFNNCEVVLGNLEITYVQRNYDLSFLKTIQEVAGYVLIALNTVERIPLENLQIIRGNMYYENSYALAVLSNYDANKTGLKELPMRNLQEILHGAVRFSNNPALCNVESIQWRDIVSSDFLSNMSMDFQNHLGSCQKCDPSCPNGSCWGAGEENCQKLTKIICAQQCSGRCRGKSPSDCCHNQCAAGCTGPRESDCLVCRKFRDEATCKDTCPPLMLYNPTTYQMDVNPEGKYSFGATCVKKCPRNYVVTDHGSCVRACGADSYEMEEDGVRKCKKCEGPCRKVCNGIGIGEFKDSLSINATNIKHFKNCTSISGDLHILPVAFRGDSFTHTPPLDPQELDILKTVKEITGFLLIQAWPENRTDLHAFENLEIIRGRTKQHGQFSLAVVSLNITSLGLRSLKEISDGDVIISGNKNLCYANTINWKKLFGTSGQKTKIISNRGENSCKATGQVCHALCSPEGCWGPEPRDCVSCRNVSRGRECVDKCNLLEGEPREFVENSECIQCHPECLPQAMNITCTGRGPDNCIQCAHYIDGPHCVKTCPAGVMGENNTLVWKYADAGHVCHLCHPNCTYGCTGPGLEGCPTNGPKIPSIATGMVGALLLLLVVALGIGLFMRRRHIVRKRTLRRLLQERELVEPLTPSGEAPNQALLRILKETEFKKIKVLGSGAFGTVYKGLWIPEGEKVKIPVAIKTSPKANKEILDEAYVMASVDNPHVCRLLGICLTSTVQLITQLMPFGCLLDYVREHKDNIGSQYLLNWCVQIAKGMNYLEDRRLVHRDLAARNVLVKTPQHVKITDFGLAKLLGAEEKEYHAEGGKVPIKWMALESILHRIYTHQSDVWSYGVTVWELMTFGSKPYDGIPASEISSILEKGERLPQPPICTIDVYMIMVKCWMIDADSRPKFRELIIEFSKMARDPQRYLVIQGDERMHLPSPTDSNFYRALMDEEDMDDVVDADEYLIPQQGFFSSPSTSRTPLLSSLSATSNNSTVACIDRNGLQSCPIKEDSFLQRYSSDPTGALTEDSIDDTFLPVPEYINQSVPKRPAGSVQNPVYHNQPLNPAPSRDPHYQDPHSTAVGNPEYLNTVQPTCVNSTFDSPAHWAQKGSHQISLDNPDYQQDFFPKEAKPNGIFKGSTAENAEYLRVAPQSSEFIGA
T2 sequence (P00533 with tags, fused parts or gaps DEL746-750 limits assumed): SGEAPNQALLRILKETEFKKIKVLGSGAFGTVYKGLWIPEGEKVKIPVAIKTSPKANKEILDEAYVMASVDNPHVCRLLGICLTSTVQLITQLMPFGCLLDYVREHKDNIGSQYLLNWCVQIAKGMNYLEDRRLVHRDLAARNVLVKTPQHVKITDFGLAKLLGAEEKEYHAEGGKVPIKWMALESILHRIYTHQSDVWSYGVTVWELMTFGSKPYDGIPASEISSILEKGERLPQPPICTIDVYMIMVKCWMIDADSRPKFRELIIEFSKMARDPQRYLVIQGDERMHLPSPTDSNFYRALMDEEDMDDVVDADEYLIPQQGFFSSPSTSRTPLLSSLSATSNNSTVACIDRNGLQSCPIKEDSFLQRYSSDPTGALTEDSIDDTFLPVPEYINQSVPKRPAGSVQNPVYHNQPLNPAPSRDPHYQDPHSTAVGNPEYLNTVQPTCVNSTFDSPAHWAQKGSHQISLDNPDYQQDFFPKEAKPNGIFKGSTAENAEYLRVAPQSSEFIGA

Take `C[C@H](CN(C)C)Oc1cc(N2CC[C@@H](C(C)(C)O)C2)cc2ncnc(Nc3ccc4ncsc4c3)c12` (single isomer, unassigned) [Example 155]: the concentration for half-maximal inhibition (IC50) (in test [1]; on EGFR L858R; on EGFR (d746-750)) was no more than 0.01 µM each time.
Take `COc1nn(C)cc1-c1cc(O[C@H]2CCCN(C)C2)c2c(Nc3ccc4ncsc4c3)ncnc2c1` [Example 12, (S)-N-(7-(3-methoxy-1-methyl-1H-pyrazol-4-yl)-5-((1-methylpiperidin-3-yl)oxy)quinazolin-4-yl)benzo[d]thiazol-6-amine]: the half-inhibitory concentration (IC50) (in test [1]; on EGFR L858R; at EGFR (d746-750)) was no more than 0.01 µM throughout.
On to `C[C@H](Oc1cc(-c2cnn(C)c2)cc2ncnc(Nc3ccc4ncsc4c3)c12)C(=O)N1CCOCC1` [Example 284, (S)-2-((4-(benzo[d]thiazol-6-ylamino)-7-(1-methyl-1H-pyrazol-4-yl)quinazolin-5-yl)oxy)-1-morpholinopropan-1-one], for which the IC50 (in test [1]; at EGFR L858R; at EGFR (d746-750)) was no more than 0.01 µM in each case.
On to `Cn1cc(-c2cc(OC3CCCOC3)c3c(Nc4ccc5ncsc5c4)ncnc3c2)cn1` (single isomer, unassigned) [Example 7], for which the half-inhibitory concentration (IC50) in test [1] was 0.0101 to 0.05 µM; at EGFR L858R, no more than 0.01 µM; at EGFR (d746-750), no more than 0.01 µM.
On to `C[C@@H](Oc1cc(N2CCN(C)CC2)cc2ncnc(Nc3ccc4ncsc4c3F)c12)C1COC1` (single isomer, unassigned) [Example 95], for which the IC50 in test [1] is 0.0101 to 0.05 µM; on EGFR L858R it was 0.0101 to 0.05 µM; at EGFR (d746-750), no more than 0.01 µM.
As to `Cn1cc(-c2cc(O[C@H]3CNC[C@@H]3F)c3c(Nc4ccc5ncsc5c4)ncnc3c2)cn1` [Example 382, N-(5-(((3S,4S)-4-fluoropyrrolidin-3-yl)oxy)-7-(1-methyl-1H-pyrazol-4-yl)quinazolin-4-yl)benzo[d]thiazol-6-amine], the 50% inhibitory concentration (IC50) was greater than 0.0501 µM in test [1], 0.0101 to 0.05 µM on EGFR L858R and no more than 0.01 µM at EGFR (d746-750).
For `CO[C@H]1CCN(c2cc(O[C@H](C)C3COC3)c3c(Nc4ccc5ncsc5c4)ncnc3c2)C1` [Example 197, N-(7-((S)-3-methoxypyrrolidin-1-yl)-5-((R)-1-(oxetan-3-yl)ethoxy)quinazolin-4-yl)benzo[d]thiazol-6-amine], the concentration for half-maximal inhibition (IC50) (in test [1]; on EGFR L858R; at EGFR (d746-750)) was no more than 0.01 µM in each case.
As to `Cn1cc(-c2cc(OC3CC3)c3c(Nc4ccc5ncsc5c4F)ncnc3c2)cn1` [Example 76, N-(5-cyclopropoxy-7-(1-methyl-1H-pyrazol-4-yl)quinazolin-4-yl)-7-fluorobenzo[d]thiazol-6-amine], the half-inhibitory concentration (IC50) was 0.0101 to 0.05 µM in test [1], no more than 0.01 µM at EGFR L858R and no more than 0.01 µM at EGFR (d746-750).
Take `COCCN1CCC(Oc2cc(-c3cnn(C)c3)cc3ncnc(Nc4ccc5ncsc5c4)c23)CC1` [Example 313, N-(5-((1-(2-methoxyethyl)piperidin-4-yl)oxy)-7-(1-methyl-1H-pyrazol-4-yl)quinazolin-4-yl)benzo[d]thiazol-6-amine]: the IC50 in test [1] was 0.0101 to 0.05 µM; on EGFR L858R, no more than 0.01 µM; on EGFR (d746-750) it was no more than 0.01 µM.
Consider `C[C@@H](Oc1cc(-c2cnn(C)c2)cc2ncnc(Nc3ccc4ncsc4c3F)c12)C1CN(C)C1` (single isomer, unassigned) [Example 387], for which the IC50 (in test [1]; at EGFR L858R; on EGFR (d746-750)) was no more than 0.01 µM in each case.
For `COC[C@@H](C)Oc1cc(N2CCN(C)C[C@H]2C)cc2ncnc(Nc3ccc4ncsc4c3)c12` (single isomer, unassigned) [Example 212], the IC50 is greater than 0.0501 µM in test [1], 0.0101 to 0.05 µM at EGFR L858R and 0.0101 to 0.05 µM on EGFR (d746-750).
Turning to `CN(C)C[C@@H](Oc1cc(-c2cnn(C)c2)cc2ncnc(Nc3ccc4ncsc4c3)c12)C(F)F` (single isomer, unassigned) [Example 151], the 50% inhibitory concentration (IC50) (in test [1]; on EGFR L858R; at EGFR (d746-750)) was no more than 0.01 µM in each case.
For the compound `Cc1cn(-c2cc(O[C@H](C)C3COC3)c3c(Nc4ccc5ncsc5c4)ncnc3c2)c(=O)n1C` [Example 202, (R)-1-(4-(benzo[d]thiazol-6-ylamino)-5-(1-(oxetan-3-yl)ethoxy)quinazolin-7-yl)-3,4-dimethyl-1,3-dihydro-2H-imidazol-2-one], the IC50 (in test [1]; on EGFR L858R; at EGFR (d746-750)) was no more than 0.01 µM throughout.
As to `Cn1cc(-c2cc(O[C@H]3CCOC3)c3c(Nc4ccc5ncsc5c4)ncnc3c2)cn1` [Example 36, (S)-N-(7-(1-methyl-1H-pyrazol-4-yl)-5-((tetrahydrofuran-3-yl)oxy)quinazolin-4-yl)benzo[d]thiazol-6-amine], the 50% inhibitory concentration (IC50) (in test [1]; at EGFR L858R; at EGFR (d746-750)) was no more than 0.01 µM each time.
In the case of `C[C@H]1[C@H](Oc2cc(-c3cnn(C)c3)cc3ncnc(Nc4ccc5ncsc5c4)c23)CN1C` (single isomer, unassigned) [Example 321], the half-maximal inhibitory concentration (IC50) in test [1] was 0.0101 to 0.05 µM; at EGFR L858R, 0.0101 to 0.05 µM; on EGFR (d746-750), no more than 0.01 µM.
On to `CCN1CCC(Oc2cc(-c3cnn(C)c3)cc3ncnc(Nc4ccc5ncsc5c4)c23)CC1` [Example 309, N-(5-((1-ethylpiperidin-4-yl)oxy)-7-(1-methyl-1H-pyrazol-4-yl)quinazolin-4-yl)benzo[d]thiazol-6-amine], for which the IC50 (in test [1]; on EGFR L858R; at EGFR (d746-750)) was no more than 0.01 µM in each case.
With `C[C@@H]1CN(c2cc(O[C@H](C)C3COC3)c3c(Nc4ccc5ncsc5c4F)ncnc3c2)CCN1C` (single isomer, unassigned) [Example 102], the IC50 (in test [1]; on EGFR L858R; on EGFR (d746-750)) was no more than 0.01 µM each time.
With `COc1nn(C)cc1-c1cc(O[C@H]2CCN(C)C2=O)c2c(Nc3ccc4ncsc4c3)ncnc2c1` (single isomer, unassigned) [Example 75], the IC50 (in test [1]; on EGFR L858R; on EGFR (d746-750)) was no more than 0.01 µM in each case.
On to `Cn1cc(-c2cc(OCC3COC3)c3c(Nc4ccc5ncsc5c4F)ncnc3c2)cn1` [Example 13, 7-fluoro-N-(7-(1-methyl-1H-pyrazol-4-yl)-5-(oxetan-3-ylmethoxy)quinazolin-4-yl)benzo[d]thiazol-6-amine], for which the IC50 (in test [1]; on EGFR L858R; on EGFR (d746-750)) was no more than 0.01 µM each time.
Turning to `Cc1cn(-c2cc(OC(C)CN(C)C)c3c(Nc4ccc5ncsc5c4)ncnc3c2)c(=O)n1C` (stereo not drawn) [Example 203, 1-(4-(benzo[d]thiazol-6-ylamino)-5-((1-(dimethylamino)propan-2-yl)oxy)quinazolin-7-yl)-3,4-dimethyl-1,3-dihydro-2H-imidazol-2-one], the concentration for half-maximal inhibition (IC50) in test [1] was 0.0101 to 0.05 µM; on EGFR L858R it was 0.0101 to 0.05 µM; at EGFR (d746-750), no more than 0.01 µM.
With `C[C@@H](Oc1cc(-c2cn(C)n(C(F)F)c2=O)cc2ncnc(Nc3ccc4ncsc4c3)c12)C1COC1` (single isomer, unassigned) [Example 174], the IC50 (in test [1]; at EGFR L858R; on EGFR (d746-750)) was no more than 0.01 µM in each case.
Regarding `Cn1cc(-c2cc(O[C@H]3CCOC[C@@H]3F)c3c(Nc4ccc5ncsc5c4)ncnc3c2)cn1` (single isomer, unassigned) [Example 46], the IC50 (in test [1]; at EGFR L858R; at EGFR (d746-750)) was no more than 0.01 µM throughout.
As for `COc1cc(-c2cnn(C)c2)cc2ncnc(Nc3ccc4ncsc4c3F)c12` [Example 3, 7-fluoro-N-(5-methoxy-7-(1-methyl-1H-pyrazol-4-yl)quinazolin-4-yl)benzo[d]thiazol-6-amine], the concentration for half-maximal inhibition (IC50) was 0.0101 to 0.05 µM in test [1], no more than 0.01 µM on EGFR L858R and no more than 0.01 µM on EGFR (d746-750).
`CN1CC[C@H](Oc2cc(-c3cnn(C)c3)cc3ncnc(Nc4ccc5ncsc5c4)c23)C1=O` (single isomer, unassigned) [Example 23]: the half-inhibitory concentration (IC50) (in test [1]; on EGFR L858R; at EGFR (d746-750)) was no more than 0.01 µM throughout.
Consider `CN1CC[C@@H](F)[C@@H](Oc2cc(-c3cnn(C)c3)cc3ncnc(Nc4ccc5ncsc5c4)c23)C1` (single isomer, unassigned) [Example 162], for which the IC50 in test [1] is 0.0101 to 0.05 µM; on EGFR L858R, no more than 0.01 µM; at EGFR (d746-750), no more than 0.01 µM.
As for `C[C@@H](Oc1cc(N2CCN(C)[C@@H](C)C2)cc2ncnc(Nc3ccc4ncsc4c3F)c12)C1COC1` (single isomer, unassigned) [Example 98], the figures for the half-maximal inhibitory concentration (IC50) (in test [1]; at EGFR L858R; on EGFR (d746-750)) were 0.0101 to 0.05 µM, no more than 0.01 µM and no more than 0.01 µM, respectively.
For the compound `CC(C)n1cc(-c2cc(OC3CCOCC3)c3c(Nc4ccc5ncsc5c4)ncnc3c2)cn1` [Example 191, N-(7-(1-isopropyl-1H-pyrazol-4-yl)-5-((tetrahydro-2H-pyran-4-yl)oxy)quinazolin-4-yl)benzo[d]thiazol-6-amine], the IC50 is 0.0101 to 0.05 µM in test [1], no more than 0.01 µM at EGFR L858R and no more than 0.01 µM at EGFR (d746-750).
Take `CN(C)[C@H]1CC[C@@H]1Oc1cc(-c2cnn(C)c2)cc2ncnc(Nc3ccc4ncsc4c3)c12` (single isomer, unassigned) [Example 154]: the 50% inhibitory concentration (IC50) (in test [1]; on EGFR L858R; at EGFR (d746-750)) was no more than 0.01 µM in each case.

For orientation: IC50 means the concentration that gives 50% inhibition.
